Like-named read-outs stand apart in the source and are kept apart here.
What was measured:
HIV K103N mutant = tested on: HIV K103N mutant; parameters: method as in Sampah et al., 2011; conditions: ref Sampah et al., 2011; cited from earlier work
[1] = tested on: plasma proteins (human serum albumin and α-1-acid glycoprotein); conditions: cited from earlier work; for unbound fraction in human plasma (fu): ref Almond et al., 2005, Fayet et al., 2008, Burhenne et al., 2010, Avery et al., 2011, 2013a
HIV Y181C mutant = tested on: HIV Y181C mutant; parameters: method as in Sampah et al., 2011; conditions: ref Sampah et al., 2011; cited from earlier work
[2] = in vivo; cited from earlier work
[3] = cited from earlier work
[4] = cited from earlier work; for typical population clearance value: 70kg; for typical population clearance value / relative change in apparent oral clearance vs reference genotype: ref Dickinson et al. (2015)
HIV G190S mutant = tested on: HIV G190S mutant; parameters: method as in Sampah et al., 2011; conditions: ref Sampah et al., 2011; cited from earlier work
[5] = no reference given; cited from earlier work
[6] = human, in vivo
Text: In our work, we modeled metabolic autoinduction similarly to the model proposed by Zhu et al. ([2009]). We defined the term α as the ratio of the mean clearance on day 1 to the mean clearance at steady state (after autoinduction). […] For each virtual patient generated from the population pharmacokinetic model, the individual clearance at steady state was available and the clearance at day 1 was computed using CLi,t0 = α·CLi, SS. Zhu et al. ([2009]) proposed a model for time-dependent autoinduction that we used herein
(4) CLi(t)=CLi,t0+(CLi,SS-CLi,t0)·t-t0/(t-t0)+T50
where CLi(t) is the individual clearance rate at the time t and t0 is the time of the first EFV dose. CLi(0) and CLi, SS represent the clearance rates at day 1 and at steady state.

wild-type HIV = tested on: wild-type HIV; parameters: method as in Shen et al., 2008; conditions: ref Shen et al., 2008, cited from earlier work
[7] = parameters: method as in Mukonzo et al., 2009; conditions: healthy men, ref Mukonzo et al., 2009, cited from earlier work
[8] = in vivo; cited from earlier work; remark: listed apart in the source
[9] = genotype GG/TC or CC/CA or AA/CC
[10] = genotype GG/TC or CC/CA or AA/CT
[11] = genotype GG/TC or CC/CC/CT or TT
[12] = genotype GT/TC or CC/CA or AA/CC
[13] = genotype GT/TC or CC/CC/CT or TT

**Q.** For `O=C1Nc2ccc(Cl)cc2[C@@](C#CC2CC2)(C(F)(F)F)O1` [efavirenz], which “hill coefficient m as multiple of m(wt)” value (HIV K103N mutant) is on record?
**A.** 0.83·m(wt)

**Q.** And the “unbound fraction in human plasma (fu)” value [1]?
**A.** ≤ 1%

**Q.** What about the “unbound fraction in human plasma (fu)” value ([1]; listed as EFV) of the same compound?
**A.** < 1%

**Q.** What about the “fu,plasma used for IC50 correction” value ([1]; value used to obtain IC50plasma) of the same compound?
**A.** 0.2%

**Q.** And the “hill coefficient m as multiple of m(wt)” value (HIV Y181C mutant)?
**A.** 0.9·m(wt)

**Q.** What about the “cervical fluid-to-plasma ratio of total concentrations” value [2] of the same compound?
**A.** 0.4%

**Q.** And the “T50, time where the clearance rate reaches half of its steady-state value” ([3]; in vivo)?
**A.** 245 h

**Q.** What about the “average clearance on the first day” value ([3]; ref Zhu et al., 2009) of the same compound?
**A.** 5.76 L/h

**Q.** What about the “typical population clearance value” ([4]; Missing genotype) of the same compound?
**A.** 8.7 L/h

**Q.** What about the “typical population clearance value” [4, 9] of the same compound?
**A.** 9.0 L/h

**Q.** And the “typical population clearance value” [4, 10]?
**A.** 11.4 L/h

**Q.** What about the “typical population clearance value” ([4]; genotype GG/TC or CC/CC/CC) of the same compound?
**A.** 8.7 L/h

**Q.** What about the “typical population clearance value” [4, 11] of the same compound?
**A.** 3.5 L/h

**Q.** And the “typical population clearance value” [4, 12]?
**A.** 2.2 L/h

**Q.** And the “typical population clearance value” ([4]; genotype GT/TC or CC/CC/CC)?
**A.** 5.0 L/h

**Q.** And the “typical population clearance value” [4, 13]?
**A.** 4.6 L/h

**Q.** What about the “typical population clearance value” ([4]; genotype GT/TT/CA or AA/CC) of the same compound?
**A.** 8.2 L/h

**Q.** And the “typical population clearance value” ([4]; genotype GT/TT/CA or AA/CT)?
**A.** 8.4 L/h

**Q.** And the “typical population clearance value” ([4]; genotype GT/TT/CC/CC)?
**A.** 8.9 L/h

**Q.** What about the “typical population clearance value” ([4]; genotype GT/TT/CC/CT or TT) of the same compound?
**A.** 8.1 L/h

**Q.** And the “typical population clearance value” ([4]; genotype TT/TT/CA or AA/CC)?
**A.** 5.2 L/h

**Q.** And the “typical population clearance value” ([4]; genotype TT/TT/CA or AA/CT)?
**A.** 8.9 L/h

**Q.** What about the “typical population clearance value” ([4]; genotype TT/TT/CC/CC) of the same compound?
**A.** 4.0 L/h

**Q.** What about the “typical population clearance value” ([4]; genotype TT/TT/CC/CT or TT) of the same compound?
**A.** 4.1 L/h

**Q.** What about the “relative change in apparent oral clearance vs reference genotype” value (“relative change” below) ([4]; Missing genotype) of the same compound?
**A.** 0.73

**Q.** What about the “relative change” value [4, 9] of the same compound?
**A.** 0.75

**Q.** What about the “relative change” value [4, 10] of the same compound?
**A.** 0.96

**Q.** What about the “relative change” value ([4]; genotype GG/TC or CC/CC/CC) of the same compound?
**A.** 0.73

**Q.** And the “relative change” value [4, 11]?
**A.** 0.30

**Q.** What about the “relative change” value [4, 12] of the same compound?
**A.** 0.18

**Q.** What about the “relative change” value ([4]; genotype GT/TC or CC/CC/CC) of the same compound?
**A.** 0.42

**Q.** What about the “relative change” value [4, 13] of the same compound?
**A.** 0.39

**Q.** What about the “relative change” value ([4]; genotype GT/TT/CA or AA/CC) of the same compound?
**A.** 0.69

**Q.** And the “relative change” value ([4]; genotype GT/TT/CA or AA/CT)?
**A.** 0.71

**Q.** And the “relative change” value ([4]; genotype GT/TT/CC/CC)?
**A.** 0.75

**Q.** And the “relative change” value ([4]; genotype GT/TT/CC/CT or TT)?
**A.** 0.68

**Q.** And the “relative change” value ([4]; genotype TT/TT/CA or AA/CC)?
**A.** 0.44

**Q.** What about the “relative change” value ([4]; genotype TT/TT/CA or AA/CT) of the same compound?
**A.** 0.75

**Q.** And the “relative change” value ([4]; genotype TT/TT/CC/CC)?
**A.** 0.33

**Q.** What about the “relative change” value ([4]; genotype TT/TT/CC/CT or TT) of the same compound?
**A.** 0.34

**Q.** What about the “absorption rate constant ka” value ([4]; in vivo) of the same compound?
**A.** 0.6 h⁻¹

**Q.** And the “interindividual variability CVIIV(CLss/Fbio)” value ([4]; in vivo)?
**A.** 36.6%

**Q.** What about the “interoccasion variability CVIOV(CLss/Fbio)” value ([4]; in vivo) of the same compound?
**A.** 21.0%

**Q.** What about the “apparent volume of distribution V/Fbio” value ([4]; population mean, 70 kg individual, ref Dickinson et al., 2015) of the same compound?
**A.** 282 L

**Q.** And the “apparent oral clearance CL/Fbio (CLss/Fbio)” value ([4]; population value, 70 kg individual, reference (wild-type) CYP genotype, after autoinduction, ref Dickinson et al., 2015)?
**A.** 11.9 L/h

**Q.** What about the “hill coefficient m as multiple of m(wt)” value (HIV G190S mutant) of the same compound?
**A.** 0.6·m(wt)

**Q.** What about the LogP [5] of the same compound?
**A.** ≈ 4

**Q.** What about the “α, ratio of mean clearance on day 1 to mean clearance at steady state” value [6] of the same compound?
**A.** 0.58

**Q.** What about the IC50 (wild-type HIV; corrected for protein binding) of the same compound?
**A.** 5.4 nM

**Q.** What about the “hill coefficient m (± sd)” value (wild-type HIV) of the same compound?
**A.** 1.69 (±0.08)

**Q.** What about the half life ([7]; slow metabolisers) of the same compound?
**A.** 54.7 h

**Q.** And the half life ([7]; wild type)?
**A.** 37.3 h

**Q.** And the “semen-to-plasma ratio of total EFV concentrations” value [8]?
**A.** 3.4–5%
